In paper PMC7031696 (Cell chemical biology, 2019):

System: 3D7-MR4 trophozoite parasite-infected RBCs
Assay: Metabolomic profiling (hydrophilic metabolite changes, UHPLC-MS)
Assay type: cell-based, Plasmodium falciparum

CC(C)(C)c1ccc2c(c1)CN(Cc1ccc(Cl)cc1)CO2 [MMV000442]
peptide levels (hemoglobin catabolism signature) (10 × IC50^72h, 2.5 hr, trophozoites): decreased peptide levels | Log2(fold changes) 1_3-Bisphosphoglyceric acid (metabolite 1_3-Bisphosphoglyceric acid, log2 fold change): 0.0000 | Log2(fold changes) 2-Hydroxy-2-methylbutanedioic acid (metabolite 2-Hydroxy-2-methylbutanedioic acid, log2 fold change): 0.0000 | Log2(fold changes) 2-Isopropylmalic acid (metabolite 2-Isopropylmalic acid, log2 fold change): 0.0000 | Log2(fold changes) 2-dehydro-D-gluconate (metabolite 2-dehydro-D-gluconate, log2 fold change): 0.0187 | Log2(fold changes) 2-oxo-4-methylthiobutanoate (metabolite 2-oxo-4-methylthiobutanoate, log2 fold change): 0.0000 | Log2(fold changes) 2_3-Diphosphoglyceric acid (metabolite 2_3-Diphosphoglyceric acid, log2 fold change): 0.0000 | Log2(fold changes) 3-phosphoglycerate (metabolite 3-phosphoglycerate, log2 fold change): 0.1472 | Log2(fold changes) 3-phosphoserine (metabolite 3-phosphoserine, log2 fold change): -0.0388 | Log2(fold changes) 4-Pyridoxic acid (metabolite 4-Pyridoxic acid, log2 fold change): 0.3454 | Log2(fold changes) 4-aminobutyrate (metabolite 4-aminobutyrate, log2 fold change): -0.2887 | Log2(fold changes) 4-phosphopantetheine (metabolite 4-phosphopantetheine, log2 fold change): 0.0000 | Log2(fold changes) 4-phosphopantothenate (metabolite 4-phosphopantothenate, log2 fold change): -0.1668 | Log2(fold changes) 5-aminopentanoic acid (metabolite 5-aminopentanoic acid, log2 fold change): -0.5922 | Log2(fold changes) 5-methyl-THF (metabolite 5-methyl-THF, log2 fold change): 0.0000 | Log2(fold changes) 5-phosphoribosyl-1-pyrophosphate (metabolite 5-phosphoribosyl-1-pyrophosphate, log2 fold change): 0.0000 | Log2(fold changes) 6-phospho-D-gluconate (metabolite 6-phospho-D-gluconate, log2 fold change): -0.0694 | Log2(fold changes) ADP-D-glucose (metabolite ADP-D-glucose, log2 fold change): 0.0000 | Log2(fold changes) Acetyl-glycine (metabolite Acetyl-glycine, log2 fold change): 0.0000 | Log2(fold changes) Acetyllysine (metabolite Acetyllysine, log2 fold change): -2.4239 | Log2(fold changes) Aminoadipic acid (metabolite Aminoadipic acid, log2 fold change): 0.6779 | Log2(fold changes) CDP (metabolite CDP, log2 fold change): -0.1566 | Log2(fold changes) CDP-choline (metabolite CDP-choline, log2 fold change): 0.0000 | Log2(fold changes) CDP-ethanolamine (metabolite CDP-ethanolamine, log2 fold change): 0.0000 | Log2(fold change) of CMP (metabolite CMP): -0.4256 | Log2(fold change) of CTP (metabolite CTP): 0.0000 | Log2(fold changes) Citraconic acid (metabolite Citraconic acid, log2 fold change): 0.0000 | Log2(fold change) of D-glucarate (metabolite D-glucarate): 0.0000 | Log2(fold change) of D-gluconate (metabolite D-gluconate): 0.0000 | Log2(fold change) of D-glucosamine-1/6-phosphate (metabolite D-glucosamine-1/6-phosphate): 0.0000 | Log2(fold change) of D-sedoheptulose-1/7-phosphate (metabolite D-sedoheptulose-1/7-phosphate): 0.0894 | Log2(fold change) of DL-Pipecolic Acid (metabolite DL-Pipecolic Acid): -2.3554 | Log2(fold change) of DLH (metabolite DLH): -3.0002 | Log2(fold change) of DLS (metabolite DLS): 0.0000 | Log2(fold change) of Decanoyl-CoA (metabolite Decanoyl-CoA): 0.0000 | Log2(fold change) of EV (metabolite EV): 0.0000 | Log2(fold change) of FAD (metabolite FAD): 0.0825 | Log2(fold change) of FMN (metabolite FMN): 0.2444 | Log2(fold change) of G3P/DHAP (metabolite G3P/DHAP): 0.3715 | Log2(fold change) of GDP (metabolite GDP): -0.4064 | Log2(fold change) GMP (metabolite GMP): -0.5023 | Log2(fold change) GTP (metabolite GTP): 0.0000 | Log2(fold change) HVDD (metabolite HVDD): 0.0000 | Log2(fold change) Hexose (metabolite Hexose): 0.5242 | Log2(fold change) Hydroxyisocaproic acid (metabolite Hydroxyisocaproic acid): 0.0000 | Log2(fold change) IDP (metabolite IDP): 0.0000 | Log2(fold change) IMP (metabolite IMP): -0.3808 | Log2(fold change) Inositol (metabolite Inositol): 0.0000 | Log2(fold change) Isopentyl-PP (metabolite Isopentyl-PP): 0.0000 | Log2(fold change) L-arginino-succinate (metabolite L-arginino-succinate): -0.9153 | Log2(fold change) LD (metabolite LD): 0.0782 | Log2(fold change) Myristoyl/tetradecanoyl-CoA (metabolite Myristoyl/tetradecanoyl-CoA): 0.0000 | Log2(fold change) N-Acetyl-L-alanine (metabolite N-Acetyl-L-alanine): -0.8745 | Log2(fold change) N-acetyl-L-ornithine (metabolite N-acetyl-L-ornithine): -2.0207 | Log2(fold change) N-acetyl-glucosamine-1/6-phosphate (metabolite N-acetyl-glucosamine-1/6-phosphate): 0.0000 | Log2(fold change) N-acetyl-glutamate (metabolite N-acetyl-glutamate): 0.2896 | Log2(fold change) N-acetyl-glutamine (metabolite N-acetyl-glutamine): -0.5645 | Log2(fold change) N-carbamoyl-L-aspartate (metabolite N-carbamoyl-L-aspartate): -1.7487 | Log2(fold change) NAD+ (metabolite NAD+): -0.0829 | Log2(fold change) NADH (metabolite NADH): 0.7233 | Log2(fold change) NADP+ (metabolite NADP+): 0.2722 | Log2(fold change) NADPH (metabolite NADPH): 0.0000 | Log2(fold change) O-acetyl-L-serine (metabolite O-acetyl-L-serine): 0.0000 | Log2(fold change) Octoluse 8/1P (metabolite Octoluse 8/1P): 0.0000 | Log2(fold change) Octoluse Bisphosphate (metabolite Octoluse Bisphosphate): -0.1456 | Log2(fold change) PD (metabolite PD): -3.3951 | Log2(fold change) PE (metabolite PE): -2.6495 | Log2(fold change) PEE (metabolite PEE): -3.0239 | Log2(fold change) PEEK (metabolite PEEK): -4.4264 | Log2(fold change) PVNF (metabolite PVNF): -3.4246 | Log2(fold change) Pyroglutamic acid (metabolite Pyroglutamic acid): -0.3004 | Log2(fold change) Pyrophosphate (metabolite Pyrophosphate): 0.0000 | Log2(fold change) Ribose-5-phosphate (metabolite Ribose-5-phosphate): -0.0687 | Log2(fold change) S-adenosyl-L-homocysteine (metabolite S-adenosyl-L-homocysteine): -0.3299 | Log2(fold change) S-adenosyl-L-methioninamine (metabolite S-adenosyl-L-methioninamine): 0.0000 | Log2(fold change) S-adenosyl-L-methionine (metabolite S-adenosyl-L-methionine): 0.0000 | Log2(fold change) S-methyl-5'-thioadenosine (metabolite S-methyl-5'-thioadenosine): 0.0000 | Log2(fold change) SD (metabolite SD): 0.0000 | Log2(fold change) SDL (metabolite SDL): 0.0000 | Log2(fold change) SID (metabolite SID): 0.0000 | Log2(fold change) Sedoheptulose bisphosphate (metabolite Sedoheptulose bisphosphate): -0.0816 | Log2(fold change) Thiamine pyrophosphate (metabolite Thiamine pyrophosphate): 0.0000 | Log2(fold changes) UDP-D-glucose (metabolite UDP-D-glucose, log2 fold change): 0.1178 | Log2(fold changes) UDP-D-glucuronate (metabolite UDP-D-glucuronate, log2 fold change): 0.0275 | Log2(fold changes) UDP-N-acetyl-glucosamine (metabolite UDP-N-acetyl-glucosamine, log2 fold change): -0.1255 | Log2(fold changes) UDP (metabolite UDP, log2 fold change): -0.3330 | Log2(fold changes) UMP (metabolite UMP, log2 fold change): -0.0965 | Log2(fold changes) UTP (metabolite UTP, log2 fold change): 0.0000 | Log2(fold changes) VD (metabolite VD, log2 fold change): 0.0000 | Log2(fold changes) Xanthurenic acid (metabolite Xanthurenic acid, log2 fold change): 0.0000 | Log2(fold changes) a-ketoglutarate (metabolite a-ketoglutarate, log2 fold change): -0.2716 | Log2(fold changes) acetyl-CoA (metabolite acetyl-CoA, log2 fold change): 0.0000 | Log2(fold changes) acetyl-aspartate (metabolite acetyl-aspartate, log2 fold change): -0.0302 | Log2(fold changes) acetylphosphate (metabolite acetylphosphate, log2 fold change): 0.6335 | Log2(fold changes) aconitate (metabolite aconitate, log2 fold change): -0.3057 | Log2(fold changes) adenine (metabolite adenine, log2 fold change): 0.0000 | Log2(fold changes) adenosine 5'-phosphosulfate (metabolite adenosine 5'-phosphosulfate, log2 fold change): -0.0782
